According to the supplement of paper PMC13380429:

Experiments:
Conditions in all cases: 72 h
Vero E6 [1] = assay: drug sensitivity score (DSS) for viability; higher = more toxic; extreme values may be limits of the assay
U2OS [2] = assay: as above
HepG2 [3] = assay: as above
Caco-2 [4] = assay: as above
Calu-3 [5] = assay: as above
Vero E6 [6] = assay: cell viability relative to DMSO; higher = less toxic
U2OS [7] = assay: as above
HepG2 [8] = assay: as above
Caco-2 [9] = assay: as above
Calu-3 [10] = assay: as above
Vero E6 [11] = assay: relative viability EC50 (midpoint between 100% and the lowest measured viability); higher = less toxic
U2OS [12] = assay: as above
HepG2 [13] = assay: as above
Caco-2 [14] = assay: as above
Calu-3 [15] = assay: as above

Row | Structure (SMILES) | drug sensitivity score (Vero E6 [1]) | drug sensitivity score (U2OS [2]) | drug sensitivity score (HepG2 [3]) | drug sensitivity score (Caco-2 [4]) | drug sensitivity score (Calu-3 [5]) | cell viability (Vero E6 [6]; 1 nM) [%] | cell viability (Vero E6 [6]; 10 nM) [%] | cell viability (Vero E6 [6]; 100 nM) [%] | cell viability (Vero E6 [6]; 1000 nM) [%] | cell viability (Vero E6 [6]; 10000 nM) [%] | cell viability (U2OS [7]; 1 nM) [%] | cell viability (U2OS [7]; 10 nM) [%] | cell viability (U2OS [7]; 100 nM) [%] | cell viability (U2OS [7]; 1000 nM) [%] | cell viability (U2OS [7]; 10000 nM) [%] | cell viability (HepG2 [8]; 1 nM) [%] | cell viability (HepG2 [8]; 10 nM) [%] | cell viability (HepG2 [8]; 100 nM) [%] | cell viability (HepG2 [8]; 1000 nM) [%] | cell viability (HepG2 [8]; 10000 nM) [%] | cell viability (Caco-2 [9]; 1 nM) [%] | cell viability (Caco-2 [9]; 10 nM) [%] | cell viability (Caco-2 [9]; 100 nM) [%] | cell viability (Caco-2 [9]; 1000 nM) [%] | cell viability (Caco-2 [9]; 10000 nM) [%] | cell viability (Calu-3 [10]; 1 nM) [%] | cell viability (Calu-3 [10]; 10 nM) [%] | cell viability (Calu-3 [10]; 100 nM) [%] | cell viability (Calu-3 [10]; 1000 nM) [%] | cell viability (Calu-3 [10]; 10000 nM) [%] | relative viability EC50 (Vero E6 [11]) [µM] | relative viability EC50 (U2OS [12]) [µM] | relative viability EC50 (HepG2 [13]) [µM] | relative viability EC50 (Caco-2 [14]) [µM] | relative viability EC50 (Calu-3 [15]) [µM]
1 | Cc1nc2ccc(Oc3ccc(F)cc3)cc2c(=O)n1C[C@H]1CCCN(C(C)C)C1 [YIL-781] | 0 | 0 | 0 | 0 | 0 | 93.8 | 98.3 | 96.4 | 94.3 | 88.3 | 104 | 97.1 | 98.6 | 94.4 | 94.7 | 101 | 100 | 97.4 | 102 | 90.7 | 102 | 93.5 | 87.2 | 97.5 | 92.6 | 107 | 88.2 | 94.9 | 97.7 | 97.8 | > 10 | > 10 | > 10 | > 10 | > 10
2 | COCCNC(=O)COc1ccc(OCCNC[C@H](O)COc2ccccc2)cc1 [ZD-7114] | 0 | 0 | 0 | 0 | 0 | 103 | 101 | 96.7 | 104 | 96.5 | 98.4 | 94.5 | 104 | 102 | 102 | 100 | 106 | 93.7 | 104 | 97.1 | 95.5 | 95.1 | 94.7 | 86.2 | 103 | 99.1 | 97.2 | 106 | 90 | 108 | > 10 | > 10 | > 10 | > 10 | > 10
3 | Nc1ncnc2c1ncn2CCOCP(=O)(O)O [adefovir] | 0 | 0 | 0 | 0 | 0 | 109 | 90.7 | 91.2 | 104 | 108 | 90 | 99.1 | 94.1 | 98 | 100 | 104 | 99.6 | 98.5 | 98.7 | 101 | 106 | 100 | 90.2 | 85.7 | 110 | 97.4 | 103 | 104 | 98.2 | 96.2 | > 10 | > 10 | > 10 | > 10 | > 10
4 | C[C@@H](N)Cc1c[nH]c2ccc(O)cc12 [alpha-methylserotonin] | 0 | 0 | 0 | 0 | 0 | 91.1 | 94.5 | 94.4 | 90.3 | 104 | 99 | 102 | 99.8 | 97.4 | 107 | 105 | 102 | 100 | 96.9 | 105 | 96.1 | 93 | 88 | 92.8 | 101 | 89.6 | 99.1 | 95.3 | 92.9 | 91.1 | > 10 | > 10 | > 10 | > 10 | > 10
5 | CO[C@H]1/C=C\C=C(/C)C(=O)NC2=CC(=O)C(NCCN(C)C)=C(C[C@@H](C)C[C@H](OC)[C@H](O)[C@@H](C)/C=C(\C)[C@@H]1OC(N)=O)C2=O [alvespimycin] | 12.8 | 26.6 | 36 | 13.9 | 16.4 | 93.4 | 98.4 | 94.9 | 37 | 10.1 | 97.7 | 91.3 | 30.8 | 2.5 | 1 | 106 | 57.9 | 1.3 | 1.4 | -0.1 | 98.4 | 90.3 | 82.9 | 39.7 | 1.6 | 97.3 | 88.4 | 67.1 | 36 | 20 | 0.587 | 0.0542 | 0.0114 | 0.544 | 0.148
6 | CN1CC[C@H](c2c(O)cc(O)c3c(=O)cc(-c4ccccc4Cl)oc23)[C@H](O)C1 [alvocidib] | 17.8 | 18.1 | 22.1 | 14.7 | 14.5 | 102 | 102 | 95.2 | 5.5 | 3.4 | 98.7 | 101 | 95.4 | 3 | 3.4 | 100 | 106 | 59.3 | 9.5 | 7.2 | 104 | 99.3 | 93.3 | 25.5 | 30.2 | 89.9 | 98.4 | 80.4 | 36.8 | 37.4 | 0.29 | 0.28 | 0.111 | 0.242 | 0.138
7 | CC[N+](CC)(CCNC(=O)C(=O)NCC[N+](CC)(CC)Cc1ccccc1Cl)Cc1ccccc1Cl [ambenonium] | 0 | 0 | 0 | 0 | 0 | 96.4 | 95.5 | 97.9 | 93.1 | 95.3 | 97.7 | 96.3 | 100 | 94.9 | 100 | 98.6 | 105 | 96.6 | 100 | 105 | 94.7 | 96 | 93.6 | 93.9 | 92.5 | 103 | 99.8 | 103 | 97.6 | 141 | > 10 | > 10 | > 10 | > 10 | > 10
8 | CCN1CCCC1CNC(=O)c1cc(S(=O)(=O)CC)c(N)cc1OC (stereo not given) [amisulpride] | 0 | 0 | 0 | 0 | 0 | 98.6 | 106 | 99.4 | 98.5 | 98.8 | 103 | 99.9 | 102 | 98.5 | 103 | 104 | 104 | 94.6 | 99.3 | 102 | 98.8 | 88.6 | 96.7 | 97.1 | 96.1 | 96.4 | 103 | 99.2 | 104 | 103 | > 10 | > 10 | > 10 | > 10 | > 10
9 | N#C[C@H](O[C@@H]1O[C@H](CO[C@@H]2O[C@H](CO)[C@@H](O)[C@H](O)[C@H]2O)[C@@H](O)[C@H](O)[C@H]1O)c1ccccc1 [amygdalin] | 0 | 0 | 0 | 0 | 0 | 101 | 103 | 96 | 95.5 | 102 | 96.9 | 105 | 100 | 104 | 101 | 100 | 98.8 | 104 | 101 | 96.6 | 98.4 | 104 | 110 | 92.8 | 104 | 99.2 | 105 | 93.3 | 109 | 107 | > 10 | > 10 | > 10 | > 10 | > 10
10 | O=C1NC(=O)c2c1c1c3ccccc3[nH]c1c1[nH]c3ccccc3c21 [arcyriaflavin-a] | 0 | 0 | 12.6 | 0.3 | 0 | 103 | 103 | 99.5 | 92.1 | 91.7 | 104 | 99.8 | 101 | 96.9 | 93.7 | 91.7 | 101 | 86.3 | 43.3 | 47.4 | 98.1 | 107 | 99.9 | 98.9 | 85.4 | 105 | 112 | 95.6 | 104 | 106 | > 10 | > 10 | 0.158 | > 10 | > 10
11 | CC[C@H](C)[C@H](N)C1=N[C@H](C(=O)N[C@@H](CC(C)C)C(=O)N[C@H](CCC(=O)[O-])C(=O)N[C@H](C(=O)N[C@H]2CCCCNC(=O)[C@H](CC(N)=O)NC(=O)[C@@H](CC(=O)[O-])NC(=O)[C@H](Cc3cnc[nH]3)NC(=O)[C@@H](Cc3ccccc3)NC(=O)[C@H]([C@@H](C)CC)NC(=O)[C@@H](CCCN)NC2=O)[C@@H](C)CC)CS1.[Zn+2] [bacitracin-zinc] | 0 | 0 | 0 | 0 | 0 | 96.2 | 89.9 | 100 | 95.5 | 112 | 92.8 | 99.4 | 96.4 | 103 | 104 | 96.9 | 100 | 110 | 93.6 | 111 | 93.8 | 90.5 | 104 | 104 | 110 | 93.7 | 106 | 112 | 99.9 | 106 | > 10 | > 10 | > 10 | > 10 | > 10
